Measurements reported in PubChem BioAssay (NCI).
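A five-concentration, 48-hour dose response in 96-well plates underlies each endpoint, interpolated linearly between surrounding concentrations. Abbreviation: GI50, concentration required for 50% inhibition of growth. The concentration for full growth arrest is given as TGI.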

What was measured:
Experiment in all cases: growth of human tumour cells (NCI), 48 h
[1] = system: SF-295 CNS
[2] = system: K-562 leukemia
[3] = system: OVCAR-4 ovarian
[4] = system: SNB-75 CNS
[5] = system: NCI-H522 lung
[6] = system: HOP-62 NSCLC
[7] = system: T-47D breast
[8] = system: CAKI-1 renal
[9] = system: HS 578T breast
[10] = system: HOP-92 NSCLC
[11] = system: SNB-19 CNS
[12] = system: OVCAR-8 ovarian
[13] = system: SN12C renal
[14] = system: M14 melanoma
[15] = system: UACC-257 melanoma
[16] = system: OVCAR-5 ovarian
[17] = system: PC-3 prostate
[18] = system: SR leukemia
[19] = system: LOX IMVI melanoma
[20] = system: A498 renal
[21] = system: RXF 393 renal
[22] = system: UO-31 renal
[23] = system: A549 NSCLC
[24] = system: NCI-H23 lung
[25] = system: MCF7 breast
[26] = system: EKVX NSCLC
[27] = system: NCI-H226 lung
[28] = system: HT29 colon
[29] = system: HCT-15 colon
[30] = system: COLO 205 colon
[31] = system: MDA-MB-435
[32] = system: SK-MEL-2 melanoma
[33] = system: MDA-MB-468 breast
[34] = system: HCT-116 colon
[35] = system: TK-10 renal
[36] = system: MALME-3M melanoma
[37] = system: UACC-62 melanoma
[38] = system: SF-268 CNS
[39] = system: NCI/ADR-RES ovarian
[40] = system: DU-145 prostate
[41] = system: KM12 colon
[42] = system: ACHN renal
[43] = system: U251 CNS
[44] = system: SK-MEL-28 melanoma
[45] = system: 786-0 renal
[46] = system: MDA-MB-231 breast
[47] = system: SW-620 colon
[48] = system: HCC-2998 colon
[49] = system: CCRF-CEM leukemia
[50] = system: SK-OV-3 ovarian
[51] = system: HL-60(TB) leukemia
[52] = system: SK-MEL-5 melanoma
[53] = system: IGROV1 ovarian
[54] = system: MOLT-4 leukemia
[55] = system: BT-549 breast
[56] = system: NCI-H460 lung
[57] = system: OVCAR-3 ovarian
[58] = system: SF-539 CNS
[59] = system: RPMI-8226 leukemia

`O=C1CCC(N2Cc3cc(CC(=O)Nc4ccc(N5CCCCC5)cc4)ccc3C2=O)C(=O)N1` (centres undefined) was tested, and the GI50 [1] was over 96.3 µM, the TGI [1] was over 100 µM and the GI50 [2] was over 56.1 µM. For the same compound, the TGI [2] was over 100 µM, the GI50 [3] was 23.4 µM and the TGI [3] was over 100 µM. For the same compound, the GI50 [4] was 0.0288 µM, the TGI [4] was 99.2 µM and the GI50 [5] was over 72.9 µM. For the same compound, the TGI [5] was over 100 µM, the GI50 [6] was under 0.01 µM and the GI50 [7] was under 0.01 µM. The TGI [7] was over 100 µM, the GI50 [8] was 2.06 µM and the TGI [8] was over 100 µM. It also gave a GI50 [9] of under 0.0166 µM, a TGI [9] of over 100 µM and a GI50 [10] of under 0.01 µM. It also gave a TGI [10] of over 100 µM, a GI50 [11] of 0.0594 µM and a TGI [11] of over 100 µM. For the same compound, the GI50 [12] was under 0.01 µM, the TGI [12] was over 100 µM and the GI50 [13] was 0.632 µM. The TGI [13] was over 90.8 µM, the GI50 [14] was 0.432 µM and the TGI [14] was over 100 µM. The GI50 [15] was over 100 µM, the TGI [15] was over 100 µM and the GI50 [16] was 0.24 µM. It also gave a TGI [16] of over 100 µM, a GI50 [17] of under 0.0108 µM and a TGI [17] of over 100 µM. For the same compound, the GI50 [18] was over 100 µM, the TGI [18] was over 100 µM and the GI50 [19] was over 100 µM. It also gave a TGI [19] of over 100 µM, a GI50 [20] of 0.164 µM and a TGI [20] of over 85.2 µM. For the same compound, the GI50 [21] was 9.66 µM, the TGI [21] was over 100 µM and the GI50 [22] was 0.0782 µM. The TGI [22] was over 100 µM, the GI50 [23] was 24.2 µM and the TGI [23] was over 100 µM. The GI50 [24] was over 100 µM, the TGI [24] was over 100 µM and the GI50 [25] was 12.4 µM. It also gave a TGI [25] of over 100 µM, a GI50 [26] of over 34.5 µM and a TGI [26] of over 100 µM. The GI50 [27] was 0.0398 µM, the TGI [27] was 23.3 µM and the GI50 [28] was 19 µM. The TGI [28] was over 100 µM, the GI50 [29] was 0.0368 µM and the TGI [29] was over 100 µM. For the same compound, the GI50 [30] was 0.0118 µM, the TGI [30] was over 100 µM and the GI50 [31] was over 100 µM. The TGI [31] was over 100 µM, the GI50 [32] was 2.16 µM and the TGI [32] was over 100 µM. It also gave a GI50 [33] of under 0.01 µM, a TGI [33] of under 0.0282 µM and a GI50 [34] of over 100 µM. The TGI [34] was over 100 µM, the GI50 [35] was 1.58 µM and the TGI [35] was over 100 µM. It also gave a GI50 [36] of under 0.01 µM, a TGI [36] of 0.0124 µM and a GI50 [37] of 36.3 µM. For the same compound, the TGI [37] was over 100 µM, the GI50 [38] was 40.7 µM and the TGI [38] was over 100 µM. For the same compound, the GI50 [39] was 4.34 µM, the TGI [39] was over 100 µM and the GI50 [40] was over 81.6 µM. For the same compound, the TGI [40] was over 100 µM, the GI50 [41] was 2.37 µM and the TGI [41] was over 100 µM. The GI50 [42] was over 100 µM, the TGI [42] was over 100 µM and the GI50 [43] was 46.8 µM. For the same compound, the TGI [43] was over 100 µM, the GI50 [44] was over 60.4 µM and the TGI [44] was over 100 µM. The GI50 [45] was 1.43 µM, the TGI [45] was over 100 µM and the GI50 [46] was under 0.01 µM. It also gave a GI50 [47] of under 0.0144 µM, a TGI [47] of over 100 µM and a GI50 [48] of 0.0174 µM. The TGI [48] was over 100 µM, the GI50 [49] was under 0.01 µM and the GI50 [50] was 12.9 µM. The TGI [50] was over 100 µM, the GI50 [51] was under 0.01 µM and the GI50 [52] was 1.76 µM. For the same compound, the TGI [52] was over 100 µM, the GI50 [53] was under 0.0104 µM and the TGI [53] was over 100 µM. The GI50 [54] was under 0.01 µM, the TGI [54] was over 100 µM and the GI50 [55] was under 0.01 µM. It also gave a TGI [55] of 0.927 µM, a GI50 [56] of over 100 µM and a TGI [56] of over 100 µM. For the same compound, the GI50 [57] was 23.2 µM, the TGI [57] was over 100 µM and the GI50 [58] was 25.1 µM. It also gave a TGI [58] of over 100 µM, a GI50 [59] of 20.1 µM and a TGI [59] of over 100 µM.
